The data set in a line: Solubility of NAC crystals in water. The format is physicochemical. The method, then: The solubility of NAC crystals in water was measured for different NAC concentrations, at different temperatures.

With `CC(=O)N[C@@H](CS)C(=O)O` [NAC, N-acetyl L-cysteine], the “Clearance (solubility of NAC crystals in water)” value (shortened to “Clearance”) is given as “Clear” (NAC concentration 10%, at 4° C. (storage)); “Clear” (NAC concentration 10%, at 23° C., room temperature); “Clear” (NAC concentration 10%, at 34-37° C., skin and body temperature); “Clear” (NAC concentration 12%, at 4° C. (storage)); “Clear” (NAC concentration 12%, at 23° C., room temperature); “Clear” (NAC concentration 12%, at 34-37° C., skin and body temperature). For the same compound, the “Clearance” value was “Clear” (NAC concentration 14%, at 4° C. (storage)); “Clear” (NAC concentration 14%, at 23° C., room temperature); “Clear” (NAC concentration 14%, at 34-37° C., skin and body temperature); “Minimal crystals” (NAC concentration 16%, at 4° C. (storage), cell wraps: Minimal crystals appearance); “Clear” (NAC concentration 16%, at 23° C., room temperature); “Clear” (NAC concentration 16%, at 34-37° C., skin and body temperature). The “Clearance” value (NAC concentration 18%, at 4° C. (storage)) is listed as “More crystals”; the “Clearance” value (NAC concentration 18%, at 23° C., room temperature, cell wraps: Minimal crystals appearance) is given as “Minimal”; the “Clearance” value (NAC concentration 18%, at 34-37° C., skin and body temperature) is listed as “Clear”; the “Clearance” value (NAC concentration 20%, at 4° C. (storage)) is given as “More crystals”; the “Clearance” value (NAC concentration 20%, at 23° C., room temperature) was “More crystals”; the “Clearance” value (NAC concentration 20%, at 34-37° C., skin and body temperature) is “Clear”. Also, the “NAC concentration completely soluble in water” value runs as follows: (at 23° C. and at lower temperatures) at most 15%; (from 34° C. and up) at least 20%. Also, the “concentration at which NAC solubilization reaches saturation” value (at room temperature, presumed from crystals in the HA gel tubes) was 20%.

Values taken from patent US10004761B2, “Malodor neutralizing composition” (priority 2016, dated 2018).
